From patent US5869489A, “Trypthophan ureas as neurokinnin antagonists” (Merck & Co., Inc., priority 1997, dated 1999)

Experiments:
human NK2 receptor = target: T1, human NK2 receptor (Homo sapiens, UniProt P21452); assay: Binding assay of NK2 receptor expressed in COS or CHO cells, displacement of 125I-NKA (Table 1, hNK2); conditions: human NK2 receptor, 125I-NKA ligand; read-out: hNK2 (IC50 nM)
T1 construct: expressed in transfected cells
T1 sequence (P21452 1-398): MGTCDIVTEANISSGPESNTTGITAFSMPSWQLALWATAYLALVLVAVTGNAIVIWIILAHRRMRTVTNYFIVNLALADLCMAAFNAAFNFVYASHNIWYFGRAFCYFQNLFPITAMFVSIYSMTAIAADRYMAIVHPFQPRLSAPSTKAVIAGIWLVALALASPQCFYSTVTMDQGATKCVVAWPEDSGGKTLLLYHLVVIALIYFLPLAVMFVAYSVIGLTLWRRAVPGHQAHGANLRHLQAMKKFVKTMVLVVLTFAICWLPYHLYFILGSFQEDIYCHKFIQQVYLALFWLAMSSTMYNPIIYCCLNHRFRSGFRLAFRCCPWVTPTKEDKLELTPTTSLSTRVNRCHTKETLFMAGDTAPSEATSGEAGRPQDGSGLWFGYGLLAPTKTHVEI
Description: (§1) A. Receptor Expression in COS
(§2) To express the cloned human neurokinin-1 receptor (NK 1R) transiently in COS, the cDNA for the human NK 1R was cloned into the expression vector pCDM9 which was derived from pCDM 8 (INVITROGEN) by inserting the ampicillin resistance gene (nucleotide 1973 to 2964 from BLUESCRIPT SK+) into the Sac II site. Transfection of 20 μg of the plasmid DNA into 10 million COS cells was achieved by electroporation in 800 μl of transfection buffer (135 mM NaCl, 1.2 mM CaCl2, 1.2 mM MgCl2, 2.4 mM K2 HPO4, 0.6 mM KH2 PO4, 10 mM glucose, 10 mM HEPES pH 7.4) at 260 V and 950 uF using the IBI GENEZAPPER (IBI, New Haven, Conn.). The cells were incubated in 10% fetal calf serum, 2 mM glutamine, 100 U/ml penicillin-streptomycin, and 90% DMEM media (GIBCO, Grand Island, N.Y.) in 5% CO2 at 37° C. for three days before the binding assay. Similar methods were used to express the NK2 receptor.
(§3) B. Stable Expression in CHO
(§4) To establish a stable cell line expressing the cloned human NK1R, the cDNA was subcloned into the vector pRcCMV (INVITROGEN). Transfection of 20 μg of the plasmid DNA into CHO cells was achieved by electroporation in 800 μl of transfection buffer suplemented with 0.625 mg/ml Herring sperm DNA at 300 V and 950 uF using the IBI GENEZAPPER (IBI). The transfected cells were incubated in CHO media (10% fetal calf serum, 100 U/ml pennicilin-streptomycin, 2 mM glutamine, 1/500 hypoxanthine-thymidine(ATCC), 90% IMDM media (JRH BIOSCIENCES, Lenexa, Kans.), 0.7 mg/ml G418 (GIBCO)) in 5% CO2 at 37° C. until colonies were visible. Each colony was separated and propagated. The cell clone with the highest number of human NK1R was selected for subsequent applications such as drug screening. Similar methods were used to express the human NK2 receptor.
(§5) C. Assay Protocol using COS or CHO The binding assay of human NK1R expressed in either COS or CHO cells is based on the use of ^125 I-substance P (^125 I-SP, from DU PONT, Boston, Mass.) as a radioactively labeled ligand which competes with unlabeled substance P or any other ligand for binding to the human NK1R. […] In the binding assay, 500 μl of cells were added to a tube containing 20 μl of 1.5 to 0.25 nM of ^125 I-SP and 5 μl of unlabeled substance P or any other test compound in DMSO. The tubes were incubated at 4° C. or at room temperature for 1 hour with gentle shaking. The bound radioactivity was separated from unbound radioactivity by GF/C filter (BRANDEL, Gaithersburg, Md.) which was pre-wetted with 0.1% polyethylenimine. The filter was washed with 3 ml of wash buffer (50 mM Tris pH 7.5, 5 mM MnCl2, 150 mM NaCl) three times and its radioactivity was determined by gamma counter. A similar assay was used for NK2 except ^125 I-NKA was used as the ligand.

human NK1R = target: T2, human NK1R (Homo sapiens, UniProt P25103); assay: Binding assay of human NK1R expressed in COS or CHO cells, displacement of 125I-substance P (Table 1, hNK1); conditions: human NK1 receptor, 125I-substance P ligand; read-out: hNK1 (IC50 nM)
T2 construct: expressed in transfected cells
Description: as §1, §2, §3, §4, §5

T2 sequence (P25103 whole entry): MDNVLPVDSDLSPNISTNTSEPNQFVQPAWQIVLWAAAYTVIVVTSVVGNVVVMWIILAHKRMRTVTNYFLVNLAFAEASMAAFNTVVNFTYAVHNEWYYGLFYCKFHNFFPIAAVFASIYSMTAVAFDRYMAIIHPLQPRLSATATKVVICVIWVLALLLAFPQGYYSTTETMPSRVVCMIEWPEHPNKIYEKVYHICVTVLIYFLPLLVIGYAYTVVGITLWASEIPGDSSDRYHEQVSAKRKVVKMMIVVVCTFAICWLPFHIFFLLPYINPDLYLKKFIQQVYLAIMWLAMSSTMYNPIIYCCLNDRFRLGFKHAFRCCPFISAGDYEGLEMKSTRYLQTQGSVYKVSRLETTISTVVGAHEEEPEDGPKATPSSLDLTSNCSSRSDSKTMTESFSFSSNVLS

Compound	IC50 (human NK2 receptor)	IC50 (human NK1R)
CN(Cc1ccccc1)C(=O)[C@H](Cc1c[nH]c2ccccc12)NC(=O)N1CCC(c2ccccc2)CC1 [Example 7]	50 nM	60 nM
C[C@H](NC(=O)[C@H](Cc1c[nH]c2ccccc12)NC(=O)N1CCC2(CCc3ccccc32)CC1)c1ccccc1 [Example 21, N-(1(S)-Phenylethyl)-2(S)-((spiroindane-1,4'-piperidino)-carbonyl-amino)-3-(3-indolyl)propionamide]	16 nM	80 nM
CC(=O)NC1(c2ccccc2)CCN(C(=O)N[C@@H](Cc2c[nH]c3ccccc23)C(=O)N(C)Cc2ccccc2)CC1 [Example 9, N-Benzyl-N-methyl-2-(S)-(((4-phenyl-4-acetylamino)piperidino)-carbonyl-amino)-3-(3-indolyl)propionamide]	> 100 nM	60 nM
Cc1ccccc1N1CCN(C(=O)N[C@@H](Cc2c[nH]c3ccccc23)C(=O)N(C)Cc2ccccc2)CC1 [Example 13, N-Benzyl-N-methyl-2-(S)-((4-(2-methylphenyl)piperazino)-carbonyl-amino)-3-(3-indolyl)propionamide]	15 nM	30 nM
Cc1ccccc1CNC(=O)[C@H](Cc1c[nH]c2ccccc12)NC(=O)N1CCC2(CCc3ccccc32)CC1 [Example 16, N-(2-Methylbenzyl)-2-(S)-((spiroindane-1,4'-piperidino)-carbonyl-amino)-3-(3-indolyl)propionamide]	15 nM	100 nM
COc1ccccc1N1CCN(C(=O)N[C@@H](Cc2c[nH]c3ccccc23)C(=O)N(C)Cc2ccccc2)CC1 [Example 12, N-Benzyl-N-methyl-2-(S)-((4-(2-methoxyphenyl)piperazino)-carbonyl-amino)-3-(3-indolyl)propionamide]	25 nM	20 nM
CN(Cc1ccccc1)C(=O)[C@@H](NC(=O)N1CCC2(C=Cc3ccccc32)CC1)c1ccccc1 [Example 37, N-Benzyl-N-methyl-2-(S)-((spiroindine-1,4'-piperidino)-carbonyl-amino)-2-phenylacetamide]	200 nM	575 nM
N-(1(S)-Phenylpropyl)-N-methyl-2(S)-((spiroindane-1,4'-piperidino)-carbonyl-amino)-3-(3-indolyl)propionamide [Example 23]	30 nM	650 nM
CN(Cc1ccccc1)C(=O)[C@H](COCc1ccccc1)NC(=O)N1CCC2(CC1)CN(S(C)(=O)=O)c1ccccc12 [Example 35, N-Benzyl-N-methyl-2-(S)-((1-methanesulfonyl-spiroindoline-1,4'-piperidino)-carbonyl-amino)-3-benzyloxypropionamide]	60 nM	300 nM
CCN(Cc1ccccc1)C(=O)[C@H](Cc1c[nH]c2ccccc12)NC(=O)N1CCC2(CCc3ccccc32)CC1 [Example 20, N-Benzyl-N-ethyl-2-(S)-((spiroindane-1,4'-piperidino)-carbonyl-amino)-3-(3-indolyl)propionamide]	25 nM	120 nM
Cc1ccc(CNC(=O)[C@H](Cc2c[nH]c3ccccc23)NC(=O)N2CCC3(CCc4ccccc43)CC2)cc1 [Example 18, N-(4-Methylbenzyl)-2-(S)-((spiroindane-1,4'-piperidino)-carbonyl-amino)-3-(3-indolyl)propionamide]	200 nM	100 nM
Cc1cccc(CN(C)C(=O)[C@H](Cc2c[nH]c3ccccc23)NC(=O)N2CCC3(CC2)CN(S(C)(=O)=O)c2ccccc23)c1 [Example 25, N-(3-Methylphenyl)methyl-N-methyl-2-(S)-((1-methanesulfonyl-spiroindoline-3,4'-piperidino)-carbonyl-amino)-3-(3-indolyl)propionamide]	85 nM	8 nM
CN(Cc1ccccc1)C(=O)[C@H](Cc1c[nH]c2ccccc12)NC(=O)N1CCC(Cc2ccccc2)CC1 [Example 8, N-Benzyl-N-methyl-2-(S)-((4-benzylpiperidino)-carbonyl-amino)-3-(3-indolyl)propionamide]	25 nM	90 nM
Cc1cc(C)cc(CN(C)C(=O)[C@H](Cc2c[nH]c3ccccc23)NC(=O)N2CCC3(CC2)CN(S(C)(=O)=O)c2ccccc23)c1 [Example 28, N-(3,5-Dimethylphenyl)methyl-N-methyl-2-(S)-((1-methanesulfonyl-spiroindoline-3,4'-piperidino)-carbonyl-amino)-3-(3-indolyl)propionamide]	> 300 nM	3 nM
